The target of assay [1] is T1, BCL6 (Homo sapiens (Human), UniProt P41182). In words: Immunofluorescence high content imaging of BCL6 degradation in T47D cells. Type of assay: cell-based. As to conditions: for Dmax: T47D. Summed up: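 BCL6 loss was quantified by high-content imaging (10×, 4 fields/well) after PFA fixation and anti-BCL6/Alexa-488 staining with Hoechst nuclear and CellMask counterstains. Compounds were applied for 3 days to T47D breast cancer cells in RPMI-10% FBS, 11 points, 3-fold steps, top 0.1 or 1 μM.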

Assay [2] addresses T1, BCL6. Put plainly: BCL6 TR-FRET assay (BCL6-Avitag-Biotin / BCoR-Cy5 peptide). The class given is binding. Summed up:
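After 30 min room-temperature preincubation of compound titrations with 2 nM biotinylated BCL6-Avitag, 100 nM Cy5-labelled BCoR peptide plus 2 nM Eu-streptavidin were added and TR-FRET read 2 h later. HEPES pH 7.5/125 mM NaCl buffer with Triton X, glutathione (or DTT) and BSA.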
For orientation: In TR-FRET formats the signal depends on donor and acceptor labels being close together.

A word on the IC50: it is the concentration that inhibits the measured activity by half. Read a low IC50 as greater potency. The term EC50 denotes the midpoint of the concentration-response curve. The low end stands for an effect from little substance, the high end for a need for much substance. Usually Dmax stands for the greatest extent of degradation seen.

On to `CNC(=O)[C@H](C)Oc1cc2cc(Nc3nc(N4CCC(CN5CCN(c6ccc7c(c6)C(=O)N([C@@H]6CCC(=O)NC6=O)C7=O)CC5)CC4)ncc3Cl)ccc2n(C)c1=O` [compound 213, (S)-2-((6-((5-chloro-2-(4-((4-(2-((R)-2,6-dioxopiperidin-3-yl)-1,3-dioxoisoindolin-5-yl)piperazin-1-yl)methyl)piperidin-1-yl)pyrimidin-4-yl)amino)-1-methyl-2-oxo-1,2-dihydroquinolin-3-yl)oxy)-N-methylpropanamide], for which the IC50 in assay [1] was ≥ 100 nM. For the same compound, the EC50 in assay [2] was > 100 nM.
The corresponding values for `CNC(=O)c1cc2cc(Nc3nc(N4CCC(CN5CCN(c6ccc7c(c6)C(=O)N(C6CCC(=O)NC6=O)C7=O)CC5)CC4)ncc3Cl)ccc2n(C)c1=O` (centres unmarked) [compound 214, 6-((5-chloro-2-(4-((4-(2-(2,6-dioxopiperidin-3-yl)-1,3-dioxoisoindolin-5-yl)piperazin-1-yl)methyl)piperidin-1-yl)pyrimidin-4-yl)amino)-N,1-dimethyl-2-oxo-1,2-dihydroquinoline-3-carboxamide] are ≥ 100 nM and > 100 nM.
With `CNC(=O)COc1cc2cc(Nc3nc(N4CCCN(CC5CCN(c6ccc7c(c6)C(=O)N(C6CCC(=O)NC6=O)C7=O)CC5)CC4)ncc3Cl)ccc2n(C)c1=O` (centres unmarked) [compound 215, 2-((6-((5-chloro-2-(4-((1-(2-(2,6-dioxopiperidin-3-yl)-1,3-dioxoisoindolin-5-yl)piperidin-4-yl)methyl)-1,4-diazepan-1-yl)pyrimidin-4-yl)amino)-1-methyl-2-oxo-1,2-dihydroquinolin-3-yl)oxy)-N-methylacetamide], in assay [1], the IC50 lay in the range of 10 to 50 nM and the maximal degradation (Dmax) is < 50%. Further, the EC50 in assay [2] was 50 to 100 nM.
Take `CC(=O)[C@@H](C)Oc1cc2cc(Nc3nc(N4CCC(CN5CCN(c6ccc7c(c6)C(=O)N([C@H]6CCC(=O)NC6=O)C7=O)CC5)CC4)ncc3Cl)ccc2n(C)c1=O` [compound 216, 5-(4-((1-(5-chloro-4-((1-methyl-2-oxo-3-(((R)-3-oxobutan-2-yl)oxy)-1,2-dihydroquinolin-6-yl)amino)pyrimidin-2-yl)piperidin-4-yl)methyl)piperazin-1-yl)-2-((S)-2,6-dioxopiperidin-3-yl)isoindoline-1,3-dione]: in assay [1], the IC50 was 10 to 50 nM and the greatest degradation seen (Dmax) was < 50%. Besides, the EC50 in assay [2] was > 100 nM.
The like results for `CC(=O)[C@H](C)Oc1cc2cc(Nc3nc(N4CCC(CN5CCN(c6ccc7c(c6)C(=O)N([C@H]6CCC(=O)NC6=O)C7=O)CC5)CC4)ncc3Cl)ccc2n(C)c1=O` [compound 217, 5-(4-((1-(5-chloro-4-((1-methyl-2-oxo-3-(((S)-3-oxobutan-2-yl)oxy)-1,2-dihydroquinolin-6-yl)amino)pyrimidin-2-yl)piperidin-4-yl)methyl)piperazin-1-yl)-2-((S)-2,6-dioxopiperidin-3-yl)isoindoline-1,3-dione] were, in that order, ≥ 100 nM, < 50% and > 100 nM.
The like results for `CC(=O)[C@@H](C)Oc1cc2cc(Nc3nc(N4CCC(CN5CCN(c6ccc7c(c6)C(=O)N([C@@H]6CCC(=O)NC6=O)C7=O)CC5)CC4)ncc3Cl)ccc2n(C)c1=O` [compound 218, 5-(4-((1-(5-chloro-4-((1-methyl-2-oxo-3-(((R)-3-oxobutan-2-yl)oxy)-1,2-dihydroquinolin-6-yl)amino)pyrimidin-2-yl)piperidin-4-yl)methyl)piperazin-1-yl)-2-((R)-2,6-dioxopiperidin-3-yl)isoindoline-1,3-dione] were, in that order, ≥ 100 nM, < 50% and > 100 nM.
The like results for `CC(=O)[C@H](C)Oc1cc2cc(Nc3nc(N4CCC(CN5CCN(c6ccc7c(c6)C(=O)N([C@@H]6CCC(=O)NC6=O)C7=O)CC5)CC4)ncc3Cl)ccc2n(C)c1=O` [compound 219, 5-(4-((1-(5-chloro-4-((1-methyl-2-oxo-3-(((S)-3-oxobutan-2-yl)oxy)-1,2-dihydroquinolin-6-yl)amino)pyrimidin-2-yl)piperidin-4-yl)methyl)piperazin-1-yl)-2-((R)-2,6-dioxopiperidin-3-yl)isoindoline-1,3-dione] were, in that order, 50 to 100 nM, < 50% and > 100 nM.
In the case of `CNC(=O)COc1cc2cc(Nc3nc(N4CCN(C5CCN(c6cccc7c6C(=O)N(C6CCC(=O)NC6=O)C7=O)CC5)CC4)ncc3Cl)ccc2n(C)c1=O` (centres unmarked) [compound 220, 2-((6-((5-chloro-2-(4-(1-(2-(2,6-dioxopiperidin-3-yl)-1,3-dioxoisoindolin-4-yl)piperidin-4-yl)piperazin-1-yl)pyrimidin-4-yl)amino)-1-methyl-2-oxo-1,2-dihydroquinolin-3-yl)oxy)-N-methylacetamide], in assay [1], the IC50 was < 10 nM and the Dmax lay within 50 to 70%. The EC50 in assay [2] was > 100 nM.
The corresponding values for `CNC(=O)COc1cc2cc(Nc3nc(N4CCC(OC5CCN(c6ccc7c(c6)C(=O)N(C6CCC(=O)NC6=O)C7=O)CC5)CC4)ncc3Cl)ccc2n(C)c1=O` (centres unmarked) [compound 221, 2-((6-((5-chloro-2-(4-((1-(2-(2,6-dioxopiperidin-3-yl)-1,3-dioxoisoindolin-5-yl)piperidin-4-yl)oxy)piperidin-1-yl)pyrimidin-4-yl)amino)-1-methyl-2-oxo-1,2-dihydroquinolin-3-yl)oxy)-N-methylacetamide] are < 10 nM, 50 to 70% and > 100 nM.
As to `CNC(=O)COc1cc2cc(Nc3nc(N4CCO[C@@H](COc5ccc6c(c5)C(=O)N(C5CCC(=O)NC5=O)C6=O)C4)ncc3Cl)ccc2n(C)c1=O` (stereo partly drawn) [compound 222, 2-((6-((5-chloro-2-((2R)-2-(((2-(2,6-dioxopiperidin-3-yl)-1,3-dioxoisoindolin-5-yl)oxy)methyl)morpholino)pyrimidin-4-yl)amino)-1-methyl-2-oxo-1,2-dihydroquinolin-3-yl)oxy)-N-methylacetamide], in assay [1], the IC50 lay in the range of 50 to 100 nM and the Dmax is < 50%. For the same compound, in assay [2], the EC50 was > 100 nM.
As to `Cn1c(=O)c(-n2ccnc2)cc2cc(Nc3nc(N4CCC(CN5CCN(c6ccc7c(c6)C(=O)N(C6CCC(=O)NC6=O)C7=O)CC5)CC4)ncc3Cl)ccc21` (centres unmarked) [compound 224, 5-(4-((1-(4-((3-(1H-imidazol-1-yl)-1-methyl-2-oxo-1,2-dihydroquinolin-6-yl)amino)-5-chloropyrimidin-2-yl)piperidin-4-yl)methyl)piperazin-1-yl)-2-(2,6-dioxopiperidin-3-yl)isoindoline-1,3-dione], the IC50 in assay [1] is ≥ 100 nM. In assay [2], the EC50 is > 100 nM.
Turning to `Cn1c(=O)c(Cn2cccn2)cc2cc(Nc3nc(N4CCC(CN5CCN(c6ccc7c(c6)C(=O)N(C6CCC(=O)NC6=O)C7=O)CC5)CC4)ncc3Cl)ccc21` (centres unmarked) [compound 225, 5-(4-((1-(4-((3-((1H-pyrazol-1-yl)methyl)-1-methyl-2-oxo-1,2-dihydroquinolin-6-yl)amino)-5-chloropyrimidin-2-yl)piperidin-4-yl)methyl)piperazin-1-yl)-2-(2,6-dioxopiperidin-3-yl)isoindoline-1,3-dione], the IC50 in assay [1] is ≥ 100 nM. Besides, the EC50 in assay [2] is > 100 nM.

These data come from US12310975B2, “Modulators of BCL6 proteolysis and associated methods of use” (Arvinas Operations, Inc., priority 2019, dated 2025).
